Laboratory results as given in patent US5786145A, “Oligonucleotide competitors for binding of HIV RRE to REV protein and assays for screening inhibitors of this binding” (Medical Research Council, priority 1995, dated 1998).

Assays:
Design in all cases: species or system HIV-1
rev protein [1] = experiment: Saturation binding of rev protein to labelled RBC6 (FIG. 15); conditions: 1.5 nM labelled RBC6, 0-50 nM rev; read-out: Kd from saturation binding, Scatchard plot
Method: (§1) Binding experiments were carried out using labelled RBC6 (SEQ ID NO:20 and SEQ ID NO:21) duplex formed frm the 5'-^32 P-labelled 14-mer oligoribonucleotide annealed to the 15 mer (0.6 nM) and 0-150 nM unlabelled RBC6 in the presence of 24 nM rev protein.
The mixtures for binding (0.5 ml) included 1.5 nM ^32 P-labelled RBC6 (SEQ ID NO:20 and SEQ ID NO:21) (ca. 20,000 cpm), varying concentrations (0-50 nM) of rev protein and 80 units/ml RNasin in TK buffer. The filter binding assays were carried out as described above, and the results were plotted on a graph (FIG. 15).

rev protein [2] = experiment: Scatchard analysis of RBC6 binding to rev (FIG. 14); conditions: 0.6 nM labelled RBC6, 0-150 nM unlabelled RBC6, 24 nM rev; read-out: Kd (binding constant) from Scatchard plot
Method: as §1
The mixtures for binding (0.5 ml) included 0.6 nM ^32 P-labelled RBC6 (SEQ ID NO:20 and SEQ ID NO:21) (ca. 20,000 cpm), 24 nM rev protein, varying concentrations (0-150 nM) of unlabelled RBC6 (SEQ ID NO:20 and SEQ ID NO:21) and 80 units/ml RNasin in TK buffer. The filter binding assays were carried out as described above, and a Scatchard plot (FIG. 14) was obtained from the results.

rev protein [3] = experiment: Competition filter binding against 32P-labelled R7 (FIGS. 13, 17); conditions: 1.5 nM labelled R7, 24 nM rev, 0-60 nM competitor
Method: In these experiments, uniformly ^32 P-labelled R7 (1.5 nM) was competed against 0-60 nM unlabelled competitor RNA in the presence of 24 nM rev protein.
The mixtures for competition binding (0.5 ml) included 1.5 nM ^32 P-labelled R7 (ca. 20,000 cpm), 24 nM rev protein, 1.5 ug/ml calf thymus DNA, 0.67 ug/ml yeast rRNA, varying concentrations (0-60 nM) of unlabelled competitor RNA and 80 units/ml RNasin in TK buffer (50 mM Tris-HCl (pH7.9) and 20 mM KCl). Binding was allowed to take place for more than 15 min on ice, and each mixture was passed through a Millipore GS filter (a 2.5 cm disk with a pore size of 0.22 um) prewashed twice with 0.6 ml of ice-cold TK buffer. The filter was washed with 0.6 ml of cold TK buffer and dried. The radioactivity retained on the filter was counted by liquid scintillation, and the results were plotted on a graph (FIG. 13).

Substance: RBC6: chemically synthesized RNA duplex (14-mer annealed to 15-mer), bubble with six base pairs on each side (chain 1 CGUGUGGGCGCAGC; chain 2 GCUGCGGUACACACG; RNA, backbone not given here)
- Kd (rev protein [1]): 3.8 nM
- Kd (rev protein [2]): ~3 nM
- competition for rev binding against labelled R7, result in words (rev protein [3]): competed about half as well as R7
